Data from paper PMC10336775 (Proteins, 2022).

Biological target: afRubisco (Archaeoglobus fulgidus, UniProt O28635)
Experiment: coupled NADH assay of 3PGA formed
Assay type: biochemical
Settings: 2 mM RuBp, 10 mM NaHCO3, 20 mM MgCl2, pH 8.2, 65 C; carboxylase activity

afRubisco, sequence (O28635 whole entry): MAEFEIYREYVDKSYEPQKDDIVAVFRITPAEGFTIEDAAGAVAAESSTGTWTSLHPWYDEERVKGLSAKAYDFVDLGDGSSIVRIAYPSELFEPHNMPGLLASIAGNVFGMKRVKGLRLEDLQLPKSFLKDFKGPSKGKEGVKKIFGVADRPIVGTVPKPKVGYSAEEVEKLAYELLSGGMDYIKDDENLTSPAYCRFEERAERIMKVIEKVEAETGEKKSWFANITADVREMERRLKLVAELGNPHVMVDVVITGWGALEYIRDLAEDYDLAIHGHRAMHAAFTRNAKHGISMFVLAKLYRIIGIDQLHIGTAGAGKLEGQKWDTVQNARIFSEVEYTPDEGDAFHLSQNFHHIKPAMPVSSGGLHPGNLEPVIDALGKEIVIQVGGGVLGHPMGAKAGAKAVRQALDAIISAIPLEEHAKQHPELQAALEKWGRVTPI

O=C(COP(=O)(O)O)[C@H](O)[C@H](O)COP(=O)(O)O [RuBp]
coupled NADH assay of 3PGA formed (340 nm): Activated afRubisco has very low carboxylase activity at room temperature but has much higher
